Test results as given in patent US9850287B2, “Means and methods for breaking noncovalent binding interactions between molecules” (Het Nederlands Kanker Instituut, priority 2005, dated 2017).

Target: T1, HLA-A2.1 multimers (Homo sapiens, UniProt P04439, D140Y/D185E/D98H/E176V/E277Q/G131W/G231S/I119V/I121R/I166T/I218V/N151K/N90K/P208A/P217A/Q86G/Q94H/R138H/R169H)
T1 construct: made in house
Type: physicochemical

Row | Substance | effect of UV exposure on amount of MHC complex recovered
1 | GILGFVF*L (SEQ ID NO:4) [T8*] | substantial reduction in the amount of MHC complex recovered
2 | GIL*FVFTL (SEQ ID NO:3) [G4*] | substantial reduction in the amount of MHC complex recovered
